Assay results: US6399614B1, “1-(N-phenylaminoalkyl)piperazine derivatives substituted at position 2 of the phenyl ring” (Recordati S.A. Chemical and Pharmaceutical Company, priority 1997, dated 2002)
Like-named read-outs stand apart in the source and are kept apart here.

How the values were obtained:
[1] = system: rhythmic bladder voiding contractions; experiment: Volume-induced rhythmic bladder voiding contractions in anaesthetized rats; format: in vivo, rat; settings: Rattus norvegicus; for ED (10 min disappearance of contractions): read-out: ED10 min
Description: Female Sprague Dawley rats weighing 225-275 g (Crl: CDo BR, Charles River Italia) were used. The animals were housed with free access to food and water and were maintained on a forced 12 h alternating light-dark cycle at 22-24° C. for at least one week, except during the experiment. The activity on the rhythmic bladder voiding contractions was evaluated according to the method of Dray (J. Pharmacol. Methods, 13:157, 1985), with some modifications as in Guarneri (Pharmacol. Res., 27:173, 1993). Briefly, rats were anesthetized by subcutaneous injection of 1.25 g/kg (5 ml/kg) urethane, after which the urinary bladder was catheterized via the urethra using PE 50 polyethylene tubing filled with physiological saline. The catheter was tied in place with a ligature around the external urethral orifice and was connected with conventional pressure transducers (Statham P23 ID/P23 XL). […] The bladder was then filled via the recording catheter by incremental volumes of warm (37° C.) saline until reflex bladder voiding contractions occurred (usually 0.8-1.5 ml). For intravenous (i.v.) injection of bioactive compounds, PE 50 polyethylene tubing filled with physiological saline was inserted into the jugular vein. From the cystometrogram, the number of contractions recorded 15 min before (basal values) and after treatment, as well as the mean amplitude of these contractions (mean height of the peaks in mmHg) was evaluated.
Since most compounds produced an effect that was relatively rapid in onset and led to a complete cessation of bladder contractions, bioactivity was conveniently estimated by measuring the duration of bladder quiescence (i.e., the duration of time during which no contractions occurred). The number of animals tested showing a reduction in the number of contractions >30% of that observed in the basal period was also recorded.
Also computed in this manner were extrapolated doses which induced a reduction of the number of contractions of greater than 30% in 50% of treated rats (ED50, frequency) by the method of Bliss (Bliss C. I., Quart. J. Pharm. Pharmacol. 11, 192-216, 1938). After the suppressive effects of drug injection wore off, the height of the contractile peaks was compared with the height of the peaks previously recorded after the control intravenous administration of vehicle. The potency of the tested compounds (ED50 value: the extrapolated doses inducing a 30% reduction of amplitude of the contractions in 50% of treated rats) was evaluated on a quantal basis by the method of Bliss (Bliss C. I., Quart. J. Pharm. Pharmacol. 11, 192-216, 1938).

[2] = molecular target: T1, human 5-HT1A serotonergic receptor (Homo sapiens, UniProt P08908); experiment: Radioreceptor binding, recombinant human 5-HT1A receptors ([3H]8-OH-DPAT, HeLa membranes); settings: recombinant human receptor, [3H]8-OH-DPAT; Ki from IC50 by Cheng & Prusoff; read-out: Binding affinity for the 5-HT1A receptor, Ki
T1 construct: expressed in transfected cells; host or cells: HeLa
T1 sequence (P08908 1-422): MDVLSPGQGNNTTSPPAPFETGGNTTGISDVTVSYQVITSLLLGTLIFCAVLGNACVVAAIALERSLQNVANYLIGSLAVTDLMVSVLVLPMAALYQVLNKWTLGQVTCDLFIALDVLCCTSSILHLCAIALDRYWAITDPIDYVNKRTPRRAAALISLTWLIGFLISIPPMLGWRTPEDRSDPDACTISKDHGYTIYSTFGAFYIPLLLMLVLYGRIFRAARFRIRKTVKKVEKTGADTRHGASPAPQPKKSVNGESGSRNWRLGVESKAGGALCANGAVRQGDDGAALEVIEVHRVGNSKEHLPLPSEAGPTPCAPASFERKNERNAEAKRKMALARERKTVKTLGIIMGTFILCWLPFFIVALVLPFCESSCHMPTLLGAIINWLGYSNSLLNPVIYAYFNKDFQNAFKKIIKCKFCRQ
Procedure, shortened: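 Membranes from HeLa cells stably transfected with human 5-HT1A clone G-21 incubated 30 min at 30° C with 0.2-1 nM [3H]8-OH-DPAT in 50 mM Tris HCl pH 7.4, 2.5 mM MgCl2, 10 μM pargiline; nonspecific binding with 10 μM 5-HT. Filtration assay; IC50 from curve fitting converted to Ki by Cheng-Prusoff.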

urinary bladder = experiment: Cystometric parameters (cystometrogram) in conscious rats; format: in vivo, rat; settings: for BVC after treatment / MP after treatment: mean ± S.E.; for change in vivo at 0.3 mg/kg / change in vivo at 1 mg/kg / change in vivo at 0.1 mg/kg: Rattus norvegicus, iv, 0.25 h, after vs before; for change in vivo at 0.3 mg/kg: i.v. 300 μg/kg; for change in vivo at 1 mg/kg: i.v. 1000 μg/kg; for change in vivo at 0.1 mg/kg: i.v. 100 μg/kg
Description: Male Sprague Dawley rats (Crl: CDo BR) weighing 250-350 g were used. The animals were housed with free access to food and water and maintained on a forced 12 h alternating light-dark cycle at 22-24° C. for at least one week, except during performance of the experiment. To quantify urodynamic parameters in conscious rats, cystometrographic studies were performed using procedures previously described (Guarneri et al., Pharmacol. Res., 24:175, 1991). […] An approximately 10 mm long midline incision was made in the shaved and cleaned abdominal wall. The urinary bladder was gently freed from adhering tissues, emptied, and then cannulated, via an incision at the dome, with a polyethylene cannula (Portex PP30), which was permanently sutured with silk thread. The cannula was exteriorized through a subcutaneous tunnel in the retroscapular area, where it was connected with a plastic adapter to avoid the risk of removal by the animal. For intravenous (i.v.) injection of test compounds, a PE 50 polyethylene tubing filled with physiological saline was inserted into the jugular vein and exteriorized in the retroscapular area. The rats were utilized exclusively one day after implantation. On the day of the experiment, the rats were placed in Bollman's cages, after a stabilization period of 20 min, and the free tip of the bladder catheter was connected through a T-shaped tube to a pressure transducer (Bentley T 800/Marb P 82) and to a peristaltic pump (Gilson minipuls 2) for a continuous infusion, at the constant rate of 0.1 ml/min, of saline solution into the urinary bladder. The intraluminal pressure signal during infusion was continuously recorded on a polygraph (Battaglia Rangoni KO 380 with ADCl/T amplifier).
Two urodynamic parameters were evaluated: bladder volume capacity (BVC) and micturition pressure (MP). BVC (in ml) is defined as the minimum volume infused after which detrusor contraction (followed by micturition) occurs. MP (in mm Hg) is defined as the maximal intravesical pressure induced by the contraction of detrusor during micturition. Basal BVC and MP values were calculated as the means of the first two recorded cystometrograms. At this point in the assay, the infusion was interrupted and the test compounds were administered. Fifteen minutes after intravenous administration two additional cystometrograms were recorded in each animal and the mean values of the two cystometrographic parameters were calculated. The statistical significance of the differences in urodynamic parameter values was evaluated by Student's t test for paired data.

[3] = extrapolated dose inducing 10 min of disappearance of the contractions, intravenous, anaesthetized rats
[4] = extrapolated dose inducing a reduction of the number of contractions >30% in 50% of treated rats, intravenous, read-out: ED50 (frequency)

Ki [2] [nM]	SMILES	ED (10 min disappearance of contractions) [1, 3] [mg/kg]	ED50 [1, 4] [mg/kg]	further results
17.2	COc1ccccc1N1CCN(CCNc2ccccc2C#N)CC1 [Example 10, 1-[N-(2-cyanophenyl)-2-aminoethyl]-4-(2-methoxyphenyl)piperazine]	0.122	0.028	–
2.92	COc1ccccc1N1CCN(CCNc2ccccc2C(C)=O)CC1 [Example 11, 1-[N-(2-acetylphenyl)-2-aminoethyl]-4-(2-methoxyphenyl)piperazine]	0.318	0.04	–
0.57	COc1ccccc1N1CCN(CCN(C(=O)C2CCCCC2)c2ccccc2N)CC1 [Example 27, 1-[N-(2-aminophenyl)-N-cyclohexylcarbonyl-2-aminoethyl]-4-(2-methoxyphenyl) piperazine]	0.131	0.013	–
2.33	COc1ccccc1NCCN1CCN(c2cccc3[nH]ccc23)CC1 [Example 47, 1-[N-(2-methoxyphenyl)-2-aminoethyl]-4-(4-indolyl)piperazine]	0.181	0.02	–
0.46	COc1ccccc1N(CCN1CCN(c2cccc3[nH]ccc23)CC1)C(=O)C1CCCCC1 [Example 48, 1-[N-cyclohexylcarbonyl-N-(2-methoxyphenyl)-2-aminoethyl]-4-(4-indolyl)piperazine]	0.04	0.014	–
0.24	O=C(C1CCCCC1)N(CCN1CCN(c2cccc3[nH]ccc23)CC1)c1ccccc1OC(F)(F)F [Example 51, 1-[N-cyclohexylcarbonyl-N-(2-trifluoromethoxyphenyl)-2-aminoethyl]-4-(4-indolyl)piperazine]	0.276	0.2	BVC after treatment (urinary bladder; 15 min after i.v. 300 μg/kg): 0.84 ± 0.14 mL; MP after treatment (urinary bladder; 15 min after i.v. 300 μg/kg): 73.7 ± 6.1 mmHg; BVC after treatment (urinary bladder; 15 min after i.v. 1000 μg/kg): 1.08 ± 0.09 mL; MP after treatment (urinary bladder; 15 min after i.v. 1000 μg/kg): 67.9 ± 5.6 mmHg; change in vivo at 0.3 mg/kg (urinary bladder; read-out: BVC % of change): 27.7%; change in vivo at 0.3 mg/kg (urinary bladder; read-out: MP % of change): -7.9%; change in vivo at 1 mg/kg (urinary bladder; read-out: BVC % of change): 36.5%; change in vivo at 1 mg/kg (urinary bladder; read-out: MP % of change): -13.3%
2.13	COc1cc(N)ccc1N1CCN(CCN(C(=O)C2CCCCC2)c2ccccc2OC(F)(F)F)CC1 [Example 56, 1-[N-cyclohexylcarbonyl-N-(2-trifluoromethoxyphenyl)-2-aminoethyl]-4-(4-amino-2-methoxyphenyl)piperazine]	0.061	0.021	–
0.74	COc1cc(NC(C)=O)ccc1N1CCN(CCN(C(=O)C2CCCCC2)c2ccccc2OC(F)(F)F)CC1 [Example 57, 1-[N-cyclohexylcarbonyl-N-(2-trifluoromethoxyphenyl)-2-aminoethyl]-4-(4-acetylamino-2-methoxyphenyl)piperazine]	0.254	0.252	–
0.76	COc1cc(N)ccc1N1CCN(CCN(C(=O)C2CCCCC2)c2ccccc2OCC(F)(F)F)CC1 [Example 66]	0.167	0.058	–
0.32	O=C(C1CCCCC1)N(CCN1CCN(c2cccc3[nH]ccc23)CC1)c1ccccc1OCC(F)(F)F [Example 69, 1-[N-cyclohexylcarbonyl-N-[2-(2,2,2-trifluoroethoxyphenyl)]-2-aminoethyl]-4-(4-indolyl)piperazine]	0.06	0.014	–
–	CCN(CC)CC#CCOC(=O)C(O)(c1ccccc1)C1CCCCC1 (centres unmarked) [Oxybutinin, oxybutynin, reference compound]	7.77	> 10	ED50 ([1]; extrapolated dose inducing 30% reduction of amplitude of the contractions in 50% of treated rats, intravenous, n.a. = not active, no significant reduction of the height of peaks, read-out: ED50 (amplitude)): 0.24 mg/kg; BVC after treatment (urinary bladder; 15 min after i.v. 100 μg/kg): 0.89 ± 0.18 mL; MP after treatment (urinary bladder; 15 min after i.v. 100 μg/kg): 77.4 ± 10.3 mmHg; BVC after treatment (urinary bladder; 15 min after i.v. 300 μg/kg): 0.83 ± 0.12 mL; MP after treatment (urinary bladder; 15 min after i.v. 300 μg/kg): 50.5 ± 6.3 mmHg; BVC after treatment (urinary bladder; 15 min after i.v. 1000 μg/kg): 1.00 ± 0.18 mL; change in vivo at 0.1 mg/kg (urinary bladder; read-out: BVC % of change): 8.5%; change in vivo at 0.1 mg/kg (urinary bladder; read-out: MP % of change): -18.7%; change in vivo at 0.3 mg/kg (urinary bladder; read-out: MP % of change): -38.6%; effect on MP (in words) (urinary bladder; conscious rats, i.v.): markedly and dose-dependently decreased MP

SMILES	Ki [2] [nM]	ED (10 min disappearance of contractions) [1, 3] [mg/kg]	ED50 [1, 4] [mg/kg]	further results
COc1ccccc1NCCN1CCN(c2ccccc2OC)CC1 [Example 20, 1-[N-(2-methoxyphenyl)-2-aminoethyl]-4-(2-methoxyphenyl)piperazine]	24.6	–	–	ED (10 min disappearance of contractions) ([1]; iv): 0.097 mg/kg; ED50 ([1]; iv, read-out: ED50 (frequency)): 0.025 mg/kg
